Test results: the CheMixHub viscosity set
“And” between values parts separate entries of the source, which are not always exact repeats. Equal values may be shown once.

Assay: xn = mol fraction of the nth substance listed

OCCNCCO + O
Conditions	viscosity
293.15 K, 101 kPa, x1 = 0.15	12.5 mPa·s
293.15 K, 101 kPa, x1 = 0.34	91.2 mPa·s
293.15 K, 101.3 kPa, x1 = 0.02	1.499 mPa·s
293.15 K, 101.3 kPa, x1 = 0.04	2.204 mPa·s
293.15 K, 101.3 kPa, x1 = 0.1	6.515 mPa·s and 12.37 mPa·s
293.15 K, 101.3 kPa, x1 = 0.2	25.81 mPa·s
293.15 K, 101.3 kPa, x1 = 0.3	53.68 mPa·s
293.15 K, 101.3 kPa, x1 = 0.4	143.3 mPa·s
293.15 K, 101.3 kPa, x1 = 0.6	353.7 mPa·s
293.15 K, 101.33 kPa, x1 = 0.019	1.427 mPa·s
293.15 K, 101.33 kPa, x1 = 0.041	2.171 mPa·s
298.15 K, 101 kPa, x2 = 0.9	5.29 mPa·s
298.15 K, 101 kPa, x2 = 0.9316	3.1 mPa·s
298.15 K, 101.3 kPa, x1 = 0.02	1.259 mPa·s
298.15 K, 101.3 kPa, x1 = 0.04	1.875 mPa·s
298.15 K, 101.3 kPa, x1 = 0.07	3.04 mPa·s
298.15 K, 101.3 kPa, x1 = 0.1	5.221 mPa·s and 9.782 mPa·s
298.15 K, 101.3 kPa, x1 = 0.2	19.24 mPa·s
298.15 K, 101.3 kPa, x1 = 0.3	39.15 mPa·s
298.15 K, 101.3 kPa, x1 = 0.4	97.87 mPa·s
298.15 K, 101.3 kPa, x1 = 0.6	245.4 mPa·s
298.15 K, 101.33 kPa, x1 = 0.0093	1.051 mPa·s
298.15 K, 101.33 kPa, x1 = 0.0188	1.255 mPa·s
298.15 K, 101.33 kPa, x1 = 0.0414	1.875 mPa·s
298.15 K, 101.33 kPa, x1 = 0.069	3.24 mPa·s
298.15 K, 101.33 kPa, x1 = 0.1028	5.486 mPa·s
298.15 K, 101.33 kPa, x1 = 0.1469	10.34 mPa·s
298.15 K, 101.33 kPa, x1 = 0.2054	21.44 mPa·s
298.15 K, 101.33 kPa, x1 = 0.2884	48.78 mPa·s
298.15 K, 101.33 kPa, x1 = 0.4026	112.5 mPa·s
298.15 K, 101.33 kPa, x1 = 0.6059	262.4 mPa·s
298.15 K, 101.33 kPa, x1 = 0.8012	420.3 mPa·s
298.15 K, 101.33 kPa, x1 = 0.9438	524.1 mPa·s
303.15 K, 101 kPa, x1 = 0.0501	1.922 mPa·s
303.15 K, 101 kPa, x1 = 0.1004	4.138 mPa·s
303.15 K, 101 kPa, x1 = 0.1509	8.25 mPa·s
303.15 K, 101 kPa, x1 = 0.2006	14.47 mPa·s
303.15 K, 101 kPa, x1 = 0.3008	36.44 mPa·s
303.15 K, 101 kPa, x1 = 0.4014	72.38 mPa·s
303.15 K, 101 kPa, x1 = 0.5011	118.4 mPa·s
303.15 K, 101 kPa, x1 = 0.5957	166.7 mPa·s
303.15 K, 101 kPa, x1 = 0.6968	224.8 mPa·s
303.15 K, 101 kPa, x1 = 0.8034	279.7 mPa·s
303.15 K, 101 kPa, x1 = 0.9012	320.5 mPa·s
303.15 K, 101.3 kPa, x1 = 0.02	1.106 mPa·s
303.15 K, 101.3 kPa, x1 = 0.07	2.74 mPa·s
303.15 K, 101.3 kPa, x1 = 0.1	4.42 mPa·s and 8.008 mPa·s
303.15 K, 101.3 kPa, x1 = 0.2	15.32 mPa·s
303.15 K, 101.3 kPa, x1 = 0.3	31.19 mPa·s
303.15 K, 101.3 kPa, x1 = 0.4	73.47 mPa·s
303.15 K, 101.3 kPa, x1 = 0.6	162.7 mPa·s
303.15 K, 101.33 kPa, x1 = 0.068	2.542 mPa·s
308.15 K, 101 kPa, x1 = 0.04	1.455 mPa·s
308.15 K, 101 kPa, x1 = 0.0501	1.679 mPa·s
308.15 K, 101 kPa, x1 = 0.054	1.795 mPa·s
308.15 K, 101 kPa, x1 = 0.1004	3.502 mPa·s
308.15 K, 101 kPa, x1 = 0.1509	6.653 mPa·s
308.15 K, 101 kPa, x1 = 0.2006	11.56 mPa·s
308.15 K, 101 kPa, x1 = 0.3008	27.8 mPa·s
308.15 K, 101 kPa, x1 = 0.4014	53.45 mPa·s
308.15 K, 101 kPa, x1 = 0.5011	85.56 mPa·s
308.15 K, 101 kPa, x1 = 0.5957	119 mPa·s
308.15 K, 101 kPa, x1 = 0.6968	158.6 mPa·s
308.15 K, 101 kPa, x1 = 0.8034	197.1 mPa·s
313.15 K, 101 kPa, x1 = 0.054	1.585 mPa·s
313.15 K, 101.3 kPa, x1 = 0.02	0.896 mPa·s
313.15 K, 101.3 kPa, x1 = 0.2	10.02 mPa·s
313.15 K, 101.3 kPa, x1 = 0.3	17.89 mPa·s
313.15 K, 101.3 kPa, x1 = 0.4	41.02 mPa·s
313.15 K, 101.3 kPa, x1 = 0.6	88.54 mPa·s
313.15 K, 101.33 kPa, x1 = 0.0093	0.755 mPa·s
313.15 K, 101.33 kPa, x1 = 0.0188	0.878 mPa·s
313.15 K, 101.33 kPa, x1 = 0.019	0.898 mPa·s
313.15 K, 101.33 kPa, x1 = 0.041	1.28 mPa·s
313.15 K, 101.33 kPa, x1 = 0.0414	1.25 mPa·s
313.15 K, 101.33 kPa, x1 = 0.068	1.93 mPa·s
313.15 K, 101.33 kPa, x1 = 0.069	1.884 mPa·s
313.15 K, 101.33 kPa, x1 = 0.1469	5.522 mPa·s
313.15 K, 101.33 kPa, x1 = 0.2054	10.42 mPa·s
313.15 K, 101.33 kPa, x1 = 0.2884	21.56 mPa·s
313.15 K, 101.33 kPa, x1 = 0.4026	44.04 mPa·s
313.15 K, 101.33 kPa, x1 = 0.6059	95.06 mPa·s
313.15 K, 101.33 kPa, x1 = 0.8012	143.9 mPa·s
313.15 K, 101.33 kPa, x1 = 0.9438	175.3 mPa·s
323.15 K, 101 kPa, x1 = 0.041	1.08 mPa·s
323.15 K, 101 kPa, x1 = 0.15	4.27 mPa·s
323.15 K, 101 kPa, x1 = 0.34	20.7 mPa·s
323.15 K, 101.3 kPa, x1 = 0.02	0.747 mPa·s
323.15 K, 101.3 kPa, x1 = 0.04	1.063 mPa·s
323.15 K, 101.3 kPa, x1 = 0.07	1.604 mPa·s
323.15 K, 101.3 kPa, x1 = 0.2	6.501 mPa·s
323.15 K, 101.3 kPa, x1 = 0.3	12.21 mPa·s
323.15 K, 101.3 kPa, x1 = 0.4	24.08 mPa·s
323.15 K, 101.3 kPa, x1 = 0.6	52.49 mPa·s
323.15 K, 101.33 kPa, x1 = 0.068	1.469 mPa·s
